From PMC2891903 (The Journal of nutritional biochemistry, 2010)

Target: T1, vitamin D receptor (VDR) (Homo sapiens, UniProt P11473)
T1 sequence (P11473 1-427): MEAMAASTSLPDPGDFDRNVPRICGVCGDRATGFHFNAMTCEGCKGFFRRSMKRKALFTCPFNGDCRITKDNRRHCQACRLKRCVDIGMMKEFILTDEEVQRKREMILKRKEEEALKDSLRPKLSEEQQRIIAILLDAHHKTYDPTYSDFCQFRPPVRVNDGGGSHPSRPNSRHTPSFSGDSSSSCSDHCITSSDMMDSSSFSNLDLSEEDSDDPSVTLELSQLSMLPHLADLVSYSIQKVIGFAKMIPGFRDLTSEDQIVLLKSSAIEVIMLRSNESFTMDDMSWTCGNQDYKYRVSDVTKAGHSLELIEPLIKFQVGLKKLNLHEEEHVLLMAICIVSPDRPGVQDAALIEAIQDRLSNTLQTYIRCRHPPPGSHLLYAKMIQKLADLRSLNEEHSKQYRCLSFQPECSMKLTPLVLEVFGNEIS
T1 sequence (P19793 1-462 partner): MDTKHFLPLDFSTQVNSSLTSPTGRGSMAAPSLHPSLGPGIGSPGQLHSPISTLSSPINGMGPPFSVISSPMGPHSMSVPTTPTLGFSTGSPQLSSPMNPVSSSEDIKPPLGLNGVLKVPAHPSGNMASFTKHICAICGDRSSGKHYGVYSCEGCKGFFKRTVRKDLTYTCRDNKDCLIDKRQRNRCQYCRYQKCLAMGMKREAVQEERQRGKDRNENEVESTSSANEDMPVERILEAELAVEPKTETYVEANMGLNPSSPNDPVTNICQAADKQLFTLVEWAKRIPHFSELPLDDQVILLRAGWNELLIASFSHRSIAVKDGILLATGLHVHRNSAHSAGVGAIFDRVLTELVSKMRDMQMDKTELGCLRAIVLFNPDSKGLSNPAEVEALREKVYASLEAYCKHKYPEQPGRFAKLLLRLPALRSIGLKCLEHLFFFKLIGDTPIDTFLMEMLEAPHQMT
Test: competitive displacement of [3H][…] from VDR in transfected COS-7 lysate
Assay type: binding

`COc1cc(/C=C/C(=O)CC(=O)/C=C/c2ccc(O)c(OC)c2)ccc1O` [CM, curcumin] gave a Ki of 2900 nM.
